Results as given in PubChem BioAssay AID330 (DTP/NCI, 2004).
Several values for one entry are separate records, joined by “and”; a condition that tells them apart may be missing. Equal values may be shown once. Toxic doses and inconclusive results are not listed.

Tested on: P388 leukemia ip, CD2F1 mice, survival T/C
Experiment: NCI In Vivo Anticancer Drug Screen. Data for tumor model P388 Leukemia (intraperitoneal) in CD2F1 (CDF1) mice
Details: endpoint: median survival time, higher = longer survival
Outline: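 Mice carrying the transplanted tumor received test compound or vehicle. Survival was recorded in each group, and the value is the treated-group measurement divided by that of the vehicle-treated control group.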

[1] = dose: 50.0 mg/kg/injection, schedule: Q01DX009 (ip), vehicle: Klucel (hydroxypropylcellulose) (HPC)
[2] = dose: 100.0 mg/kg/injection, schedule: Q01DX009 (ip), vehicle: Klucel (hydroxypropylcellulose) (HPC)
[3] = dose: 200.0 mg/kg/injection, schedule: Q01DX009 (ip), vehicle: Klucel (hydroxypropylcellulose) (HPC)
[4] = dose: 400.0 mg/kg/injection, schedule: Q01DX009 (ip), vehicle: Klucel (hydroxypropylcellulose) (HPC)
[5] = dose: 50.0 mg/kg/injection, schedule: Q01DX005 (ip), vehicle: Klucel (hydroxypropylcellulose) (HPC)
[6] = dose: 100.0 mg/kg/injection, schedule: Q01DX005 (ip), vehicle: Klucel (hydroxypropylcellulose) (HPC)
[7] = dose: 200.0 mg/kg/injection, schedule: Q01DX005 (ip), vehicle: Klucel (hydroxypropylcellulose) (HPC)
[8] = dose: 50.0 mg/kg/injection, schedule: Q01DX009 (ip), vehicle: saline with Tween-80
[9] = dose: 100.0 mg/kg/injection, schedule: Q01DX009 (ip), vehicle: saline with Tween-80
[10] = dose: 50.0 mg/kg/injection, schedule: Q01DX005 (ip), vehicle: saline with Tween-80
[11] = dose: 100.0 mg/kg/injection, schedule: Q01DX005 (ip), vehicle: saline with Tween-80
[12] = dose: 200.0 mg/kg/injection, schedule: Q01DX005 (ip), vehicle: saline with Tween-80

## C=C1C(=O)O[C@@H]2/C=C(/C)[C@@]3(O)C=C[C@](C)(C[C@@H](OC(=O)/C(=C\C)COC(C)=O)[C@@H]12)O3
dose: 2.5 mg/kg/injection, schedule: Q01DX009 (ip), vehicle: carboxymethylcellulose (CMC)
  T/C: 106 % of control
dose: 5.0 mg/kg/injection, schedule: Q01DX009 (ip), vehicle: carboxymethylcellulose (CMC)
  T/C: 120 % of control
dose: 10.0 mg/kg/injection, schedule: Q01DX009 (ip), vehicle: carboxymethylcellulose (CMC)
  T/C: 101 % of control
dose: 20.0 mg/kg/injection, schedule: Q01DX009 (ip), vehicle: carboxymethylcellulose (CMC)
  T/C: 120 % of control

## CC1=CCC2C([C@H]1OC(=O)c1ccc([N+](=O)[O-])cc1)C(C)(C)CCC[C@]2(C)O (stereo not given in full)
dose: 100.0 mg/kg/injection, schedule: Q04DX002 (ip), vehicle: Klucel (hydroxypropylcellulose) (HPC)
  T/C: 98 % of control
dose: 200.0 mg/kg/injection, schedule: Q04DX002 (ip), vehicle: Klucel (hydroxypropylcellulose) (HPC)
  T/C: 89 % of control
dose: 400.0 mg/kg/injection, schedule: Q04DX002 (ip), vehicle: Klucel (hydroxypropylcellulose) (HPC)
  T/C: 90 % of control

## COc1ccc(CSCc2c(CSCc3ccc(OC)c(OC)c3)c(CSCc3ccc(OC)c(OC)c3)c(CSCc3ccc(OC)c(OC)c3)c(CSCc3ccc(OC)c(OC)c3)c2CSCc2ccc(OC)c(OC)c2)cc1OC
dose: 100.0 mg/kg/injection, schedule: Q04DX003 (ip), vehicle: saline with Tween-80
  T/C: 96 % of control
dose: 200.0 mg/kg/injection, schedule: Q04DX003 (ip), vehicle: saline with Tween-80
  T/C: 90 % of control
dose: 400.0 mg/kg/injection, schedule: Q04DX003 (ip), vehicle: saline with Tween-80
  T/C: 102 % of control

## Cc1cc(N)ccc1-n1cnc2c1c(=O)n(C)c(=O)n2C
dose: 50.0 mg/kg/injection, schedule: Q01DX005 (ip), vehicle: water
  T/C: 109 % of control
dose: 100.0 mg/kg/injection, schedule: Q01DX005 (ip), vehicle: water
  T/C: 111 % of control

## CCCCCCCCCCCCCCCCOc1ccc(S(=O)(=O)Nc2ccc(N)cc2O)cc1
[1]
  T/C: 110 % of control
[2]
  T/C: 94 % of control
[3]
  T/C: 112 % of control

## CC1(C)OCC(C2OC(C)(C)OC2/C=C2/CC(=O)NC2=O)O1 (stereo not given)
[1]
  T/C: 100 % of control and 107 % of control
[2]
  T/C: 100 % of control and 120 % of control
[3]
  T/C: 102 % of control and 122 % of control
[4]
  T/C: 116 % of control

## CC12CC(=O)C3C(CCC4CC(OS(=O)(=O)O)CCC43C)C1CC1OC(=O)C=C12 (stereo not given)
[5]
  T/C: 98 % of control
[6]
  T/C: 100 % of control
[7]
  T/C: 94 % of control

## CC1C2Cc3ccc(O)cc3C1(C)CCN2CCC(=O)c1ccccc1 (stereo not given)
[5]
  T/C: 92 % of control
[6]
  T/C: 88 % of control
[7]
  T/C: 88 % of control

## O=S(=O)(OCCCl)c1ccc(F)cc1
[8]
  T/C: 109 % of control
[9]
  T/C: 101 % of control
dose: 200.0 mg/kg/injection, schedule: Q01DX009 (ip), vehicle: saline with Tween-80
  T/C: 100 % of control

## CC(C)(C)OC(=O)N/C=C/c1ccccc1
dose: 100.0 mg/kg/injection, schedule: Q04DX002 (ip), vehicle: suspension in saline
  T/C: 101 % of control
dose: 200.0 mg/kg/injection, schedule: Q04DX002 (ip), vehicle: suspension in saline
  T/C: 92 % of control
dose: 400.0 mg/kg/injection, schedule: Q04DX002 (ip), vehicle: suspension in saline
  T/C: 94 % of control

## Ic1ccc(Nc2ncnc3sc4c(c23)CCCC4)cc1
[10]
  T/C: 111 % of control
[11]
  T/C: 94 % of control
[12]
  T/C: 92 % of control

## C/C(=N\Nc1ccccc1)C1CC2C=C(C#N)C1N(Cc1ccccc1)C2 (stereo not given)
dose: 8.75 mg/kg/injection, schedule: Q01DX005 (ip), vehicle: Klucel (hydroxypropylcellulose) (HPC)
  T/C: 94 % of control
dose: 17.5 mg/kg/injection, schedule: Q01DX005 (ip), vehicle: Klucel (hydroxypropylcellulose) (HPC)
  T/C: 96 % of control
dose: 35.0 mg/kg/injection, schedule: Q01DX005 (ip), vehicle: Klucel (hydroxypropylcellulose) (HPC)
  T/C: 94 % of control

## O=C1c2ccccc2C(=O)c2c(O)c(CBr)c(CBr)c(O)c21
[10]
  T/C: 96 % of control
[11]
  T/C: 104 % of control
[12]
  T/C: 95 % of control

## O=[N+]([O-])c1ccc(/C(=C/c2ccc(F)cc2)S(=O)(=O)c2ccccc2)o1
dose: 50.0 mg/kg/injection, schedule: Q01DX009 (ip), vehicle: suspension in saline
  T/C: 97 % of control
dose: 100.0 mg/kg/injection, schedule: Q01DX009 (ip), vehicle: suspension in saline
  T/C: 88 % of control

## CC(C)[C@@]12O[C@@H]1CC13OC1[C@@H](O)CC[C@@]32O (stereo not given in full)
dose: 50.0 mg/kg/injection, schedule: Q01DX005 (ip), vehicle: saline
  T/C: 105 % of control
dose: 100.0 mg/kg/injection, schedule: Q01DX005 (ip), vehicle: saline
  T/C: 99 % of control
dose: 200.0 mg/kg/injection, schedule: Q01DX005 (ip), vehicle: saline
  T/C: 103 % of control

## Cc1cc(Cl)nn2cc(C(=O)O)nc12
dose: 50.0 mg/kg/injection, schedule: Q01DX001 (ip), vehicle: Klucel (hydroxypropylcellulose) (HPC)
  T/C: 104 % of control
dose: 100.0 mg/kg/injection, schedule: Q01DX001 (ip), vehicle: Klucel (hydroxypropylcellulose) (HPC)
  T/C: 96 % of control
dose: 200.0 mg/kg/injection, schedule: Q01DX001 (ip), vehicle: Klucel (hydroxypropylcellulose) (HPC)
  T/C: 97 % of control

## O=C(O)C(S)C(S)C(=O)O (stereo not given)
dose: 12.5 mg/kg/injection, schedule: Q01DX009 (ip), vehicle: other
  T/C: 102 % of control
dose: 25.0 mg/kg/injection, schedule: Q01DX009 (ip), vehicle: other
  T/C: 108 % of control
dose: 50.0 mg/kg/injection, schedule: Q01DX009 (ip), vehicle: other
  T/C: 103 % of control
dose: 100.0 mg/kg/injection, schedule: Q01DX009 (ip), vehicle: other
  T/C: 94 % of control
dose: 200.0 mg/kg/injection, schedule: Q01DX009 (ip), vehicle: other
  T/C: 90 % of control

## C#CC(OC(=O)NC1CCCCC1)(c1ccccc1)c1ccccc1
dose: 4.4 mg/kg/injection, schedule: Q01DX009 (ip), vehicle: saline with Tween-80
  T/C: 100 % of control
dose: 6.6 mg/kg/injection, schedule: Q01DX009 (ip), vehicle: saline with Tween-80
  T/C: 98 % of control
dose: 10.0 mg/kg/injection, schedule: Q01DX009 (ip), vehicle: saline with Tween-80
  T/C: 93 % of control
dose: 15.0 mg/kg/injection, schedule: Q01DX009 (ip), vehicle: saline with Tween-80
  T/C: 100 % of control
dose: 22.0 mg/kg/injection, schedule: Q04DX003 (ip), vehicle: saline with Tween-80
  T/C: 118 % of control
dose: 25.0 mg/kg/injection, schedule: Q04DX003 (ip), vehicle: saline with Tween-80
  T/C: 108 % of control
dose: 33.0 mg/kg/injection, schedule: Q01DX009 (ip), vehicle: saline with Tween-80
  T/C: 163 % of control
dose: 33.0 mg/kg/injection, schedule: Q04DX003 (ip), vehicle: saline with Tween-80
  T/C: 122 % of control
[8]
  T/C: 102 % of control
dose: 75.0 mg/kg/injection, schedule: Q04DX003 (ip), vehicle: saline with Tween-80
  T/C: 163 % of control

## COc1ccc(S(=O)(=O)c2cnc(N3CCCCC3)nc2N)cc1
dose: 100.0 mg/kg/injection, schedule: Q04DX002 (ip), vehicle: saline
  T/C: 100 % of control
dose: 200.0 mg/kg/injection, schedule: Q04DX002 (ip), vehicle: saline
  T/C: 98 % of control
dose: 400.0 mg/kg/injection, schedule: Q04DX002 (ip), vehicle: saline
  T/C: 97 % of control

## O=NN(C(=O)NCCCl)c1[nH]c(=O)ncc1Cl
dose: 25.0 mg/kg/injection, schedule: Q01DX005 (ip), vehicle: Klucel (hydroxypropylcellulose) (HPC)
  T/C: 97 % of control
[5]
  T/C: 100 % of control
[6]
  T/C: 108 % of control

## CC(C)NCC(O)COc1ccc(O)c(O)c1 (stereo not given)
dose: 25.0 mg/kg/injection, schedule: Q01DX009 (ip), vehicle: saline
  T/C: 100 % of control
dose: 100.0 mg/kg/injection, schedule: Q01DX009 (ip), vehicle: saline
  T/C: 123 % of control

## O=C(Cc1ccccn1)c1ccccc1
[2]
  T/C: 109 % of control
[3]
  T/C: 108 % of control
[4]
  T/C: 110 % of control

## Nc1cc(Cl)ccc1C(=O)c1ccccc1Cl
dose: 60.0 mg/kg/injection, schedule: Q01DX005 (ip), vehicle: saline with Tween-80
  T/C: 102 % of control
dose: 120.0 mg/kg/injection, schedule: Q01DX005 (ip), vehicle: saline with Tween-80
  T/C: 100 % of control
dose: 240.0 mg/kg/injection, schedule: Q01DX005 (ip), vehicle: saline with Tween-80
  T/C: 93 % of control

## CCC(SC)(SC)C(=O)N(C)c1ccccc1
dose: 25.0 mg/kg/injection, schedule: Q01DX009 (ip), vehicle: saline with Tween-80
  T/C: 100 % of control
[8]
  T/C: 104 % of control
[9]
  T/C: 100 % of control
